Legend:
Type in all cases: in vivo
Setaria viridis (SETVI) [1] = assay: E. Herbicidal post-emergence efficacy, SETVI
Description: (§1) Seeds of monocotyledonous and dicotyledonous weeds and crop plants were placed in sandy loam in plastic or organic planting pots, covered with soil and cultivated in a greenhouse under controlled growth conditions. 2 to 3 weeks after sowing, the test plants were treated at the one-leaf stage. The compounds of the invention, formulated in the form of wettable powders (WP) or as emulsion concentrates (EC), were then sprayed onto the green parts of the plants as aqueous suspension or emulsion with addition of 0.5% additive at a water application rate of 600 l/ha (converted). After the test plants had been kept in the greenhouse under optimum growth conditions for about 3 weeks, the activity of the preparations was rated visually in comparison to untreated controls.
(§2) For example, • 100% efficacy=plants have died, • 0% action=like untreated control plants.
(§3) Tables E1a to E12b below show the effects of selected compounds of the general formula (I) according to table 1 on various harmful plants at an application rate corresponding to 320 g/ha or less, which were obtained by the experimental procedure mentioned above.

Setaria viridis (SETVI) [2] = assay: C. Herbicidal pre-emergence efficacy, SETVI; details: scored after about 3 weeks
Excerpt: (§4) Seeds of monocotyledonous and dicotyledonous weed plants and crop plants were placed in plastic or organic planting pots and covered with soil. The compounds of the invention, formulated in the form of wettable powders (WP) or as emulsion concentrates (EC), were then applied to the surface of the covering soil as aqueous suspension or emulsion with addition of 0.5% additive at a water application rate equivalent to 600 l/ha (converted). After the treatment, the pots were placed in a greenhouse and kept under good growth conditions for the test plants. After about 3 weeks, the efficacy of the preparations was scored visually in comparison with untreated controls as percentages. For example, • 100% efficacy=plants have died, • 0% efficacy=like untreated control plants.
(§5) Tables C1a to C14b below show the effects of selected compounds of the general formula (I) according to table 1 on various harmful plants at an application rate corresponding to 320 g/ha or less, which were obtained by the experimental procedure mentioned above.

[3] = system: Amaranthus retroflexus (AMARE); assay: C. Herbicidal pre-emergence efficacy, AMARE; details: scored after about 3 weeks
Excerpt: as §4, §5

Viola tricolor (VIOTR) = assay: E. Herbicidal post-emergence efficacy, VIOTR
Description: as §1, §2, §3

[4] = system: Echinochloa crus-galli (ECHCG); assay: E. Herbicidal post-emergence efficacy, ECHCG
Description: as §1, §2, §3

Setaria viridis (SETVI) [5] = assay: B. Herbicidal post-emergence efficacy, SETVI; details: 1280 g/ha
Outline: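 Visual percent efficacy relative to untreated controls (0% unaffected, 100% dead), scored roughly 3 weeks after foliar spraying of one-leaf-stage pot-grown plants with WP or EC preparations at application rates up to 1280 g/ha in 600 L/ha water containing 0.5% additive.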

Stellaria media (STEME) = assay: A. Herbicidal pre-emergence efficacy, STEME
Outline: (§6)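 Applied before emergence onto covering soil at rates of 1280 g/ha or less, using 600 L/ha spray water with 0.5% additive. Scoring: visual % efficacy after ~3 weeks, greenhouse.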

[6] = system: Abutilon theophrasti (ABUTH); assay: A. Herbicidal pre-emergence efficacy, ABUTH; details: scored visually after about 3 weeks vs untreated controls
Outline: as §6

O=S(=O)(CCC(F)=C(F)F)Oc1c(F)cccc1Oc1ncc(Cl)cn1 [Example I-70] was tested, and the “Post-emergence efficacy against SETVI in %” value (Setaria viridis (SETVI) [1]; application rate 80 g/ha) was 100%, the “Post-emergence efficacy against SETVI in %” value (Setaria viridis (SETVI) [1]; application rate 320 g/ha) was 100% and the “Pre-emergence efficacy against SETVI” value (Setaria viridis (SETVI) [2]; 80 g/ha) was 90%. The “Pre-emergence efficacy against SETVI” value (Setaria viridis (SETVI) [2]; 320 g/ha) was 100%, the “Pre-emergence efficacy against AMARE” value ([3]; 80 g/ha) was 100% and the “Pre-emergence efficacy against AMARE” value ([3]; 320 g/ha) was 100%. For the same molecule, the “Post-emergence efficacy against VIOTR in %” value (Viola tricolor (VIOTR); application rate 80 g/ha) was 100%, the “Post-emergence efficacy against VIOTR in %” value (Viola tricolor (VIOTR); application rate 320 g/ha) was 100% and the “Post-emergence efficacy against ECHCG in %” value ([4]; application rate 80 g/ha) was 80%. The “Post-emergence efficacy against ECHCG in %” value ([4]; application rate 320 g/ha) was 100%.
For O=S(=O)(CCl)Oc1ccccc1Oc1ncc(Cl)cn1 [Example I-9], the “Post-emergence efficacy against SETVI in %” value (Setaria viridis (SETVI) [1]; application rate 320 g/ha) was 100%, the “Post-emergence efficacy against SETVI” value (Setaria viridis (SETVI) [5]) was 90% and the “Pre-emergence efficacy against STEME” value (Stellaria media (STEME); dosage 320 g/ha) was 100%. The “Pre-emergence efficacy against STEME” value (Stellaria media (STEME); dosage 1280 g/ha) was 100%, the “Pre-emergence efficacy against SETVI” value (Setaria viridis (SETVI) [2]; 320 g/ha) was 90% and the “Pre-emergence efficacy against AMARE” value ([3]; 80 g/ha) was 100%. For the same molecule, the “Pre-emergence efficacy against AMARE” value ([3]; 320 g/ha) was 100%, the “Post-emergence efficacy against VIOTR in %” value (Viola tricolor (VIOTR); application rate 320 g/ha) was 80% and the “Pre-emergence efficacy against ABUTH” value ([6]; 1280 g/ha) was 90%.
Cc1cccc(Oc2ncc(F)cn2)c1OS(=O)(=O)CCCC(F)(F)F [Example I-46] was tested, and the “Post-emergence efficacy against SETVI in %” value (Setaria viridis (SETVI) [1]; application rate 320 g/ha) was 80%, the “Pre-emergence efficacy against STEME” value (Stellaria media (STEME); dosage 80 g/ha) was 90% and the “Pre-emergence efficacy against STEME” value (Stellaria media (STEME); dosage 320 g/ha) was 100%. The “Pre-emergence efficacy against STEME” value (Stellaria media (STEME); dosage 1280 g/ha) was 100%, the “Pre-emergence efficacy against SETVI” value (Setaria viridis (SETVI) [2]; 80 g/ha) was 100% and the “Pre-emergence efficacy against SETVI” value (Setaria viridis (SETVI) [2]; 320 g/ha) was 100%. For the same molecule, the “Pre-emergence efficacy against AMARE” value ([3]; 80 g/ha) was 80%, the “Pre-emergence efficacy against AMARE” value ([3]; 320 g/ha) was 100% and the “Post-emergence efficacy against VIOTR in %” value (Viola tricolor (VIOTR); application rate 80 g/ha) was 90%. The “Post-emergence efficacy against VIOTR in %” value (Viola tricolor (VIOTR); application rate 320 g/ha) was 100%, the “Pre-emergence efficacy against ABUTH” value ([6]; 80 g/ha) was 90% and the “Pre-emergence efficacy against ABUTH” value ([6]; 320 g/ha) was 100%. For the same molecule, the “Pre-emergence efficacy against ABUTH” value ([6]; 1280 g/ha) was 100% and the “Post-emergence efficacy against ECHCG in %” value ([4]; application rate 320 g/ha) was 100%.
For O=S(=O)(CCC(F)(F)F)Oc1c(F)cccc1Oc1ncc(F)cn1 [Example I-47], the “Post-emergence efficacy against SETVI in %” value (Setaria viridis (SETVI) [1]; application rate 320 g/ha) was 100%, the “Pre-emergence efficacy against STEME” value (Stellaria media (STEME); dosage 80 g/ha) was 100% and the “Pre-emergence efficacy against STEME” value (Stellaria media (STEME); dosage 320 g/ha) was 100%. The “Pre-emergence efficacy against STEME” value (Stellaria media (STEME); dosage 1280 g/ha) was 100%, the “Pre-emergence efficacy against SETVI” value (Setaria viridis (SETVI) [2]; 80 g/ha) was 100% and the “Pre-emergence efficacy against SETVI” value (Setaria viridis (SETVI) [2]; 320 g/ha) was 100%. For the same molecule, the “Pre-emergence efficacy against AMARE” value ([3]; 80 g/ha) was 100%, the “Pre-emergence efficacy against AMARE” value ([3]; 320 g/ha) was 100% and the “Post-emergence efficacy against VIOTR in %” value (Viola tricolor (VIOTR); application rate 80 g/ha) was 100%. The “Post-emergence efficacy against VIOTR in %” value (Viola tricolor (VIOTR); application rate 320 g/ha) was 100%, the “Pre-emergence efficacy against ABUTH” value ([6]; 80 g/ha) was 100% and the “Pre-emergence efficacy against ABUTH” value ([6]; 320 g/ha) was 100%. For the same molecule, the “Pre-emergence efficacy against ABUTH” value ([6]; 1280 g/ha) was 100% and the “Post-emergence efficacy against ECHCG in %” value ([4]; application rate 320 g/ha) was 100%.
In the case of O=S(=O)(CCCC(F)(F)F)Oc1c(F)cccc1Oc1ncc(F)cn1 [Example I-42], the “Post-emergence efficacy against SETVI in %” value (Setaria viridis (SETVI) [1]; application rate 80 g/ha) was 100%, the “Post-emergence efficacy against SETVI in %” value (Setaria viridis (SETVI) [1]; application rate 320 g/ha) was 100% and the “Pre-emergence efficacy against STEME” value (Stellaria media (STEME); dosage 80 g/ha) was 100%. The “Pre-emergence efficacy against STEME” value (Stellaria media (STEME); dosage 320 g/ha) was 100%, the “Pre-emergence efficacy against STEME” value (Stellaria media (STEME); dosage 1280 g/ha) was 100% and the “Pre-emergence efficacy against SETVI” value (Setaria viridis (SETVI) [2]; 80 g/ha) was 100%. For the same molecule, the “Pre-emergence efficacy against SETVI” value (Setaria viridis (SETVI) [2]; 320 g/ha) was 100%, the “Pre-emergence efficacy against AMARE” value ([3]; 80 g/ha) was 100% and the “Pre-emergence efficacy against AMARE” value ([3]; 320 g/ha) was 100%. For the same molecule, the “Post-emergence efficacy against VIOTR in %” value (Viola tricolor (VIOTR); application rate 80 g/ha) was 100%, the “Post-emergence efficacy against VIOTR in %” value (Viola tricolor (VIOTR); application rate 320 g/ha) was 100% and the “Pre-emergence efficacy against ABUTH” value ([6]; 80 g/ha) was 100%. The “Pre-emergence efficacy against ABUTH” value ([6]; 320 g/ha) was 100%, the “Pre-emergence efficacy against ABUTH” value ([6]; 1280 g/ha) was 100% and the “Post-emergence efficacy against ECHCG in %” value ([4]; application rate 80 g/ha) was 100%. For the same molecule, the “Post-emergence efficacy against ECHCG in %” value ([4]; application rate 320 g/ha) was 100%.
In the case of O=S(=O)(CCC(F)(F)F)Oc1c(Br)cccc1Oc1ncc(Cl)cn1 [Example I-31], the “Post-emergence efficacy against SETVI” value (Setaria viridis (SETVI) [5]) was 90%, the “Pre-emergence efficacy against STEME” value (Stellaria media (STEME); dosage 80 g/ha) was 90% and the “Pre-emergence efficacy against STEME” value (Stellaria media (STEME); dosage 320 g/ha) was 100%. The “Pre-emergence efficacy against STEME” value (Stellaria media (STEME); dosage 1280 g/ha) was 100%, the “Pre-emergence efficacy against ABUTH” value ([6]; 320 g/ha) was 90% and the “Pre-emergence efficacy against ABUTH” value ([6]; 1280 g/ha) was 90%.
For Cc1cccc(Oc2ncc(F)cn2)c1OS(=O)(=O)CCC(F)(F)F [Example I-45], the “Post-emergence efficacy against SETVI in %” value (Setaria viridis (SETVI) [1]; application rate 320 g/ha) was 80%, the “Pre-emergence efficacy against STEME” value (Stellaria media (STEME); dosage 80 g/ha) was 90% and the “Pre-emergence efficacy against STEME” value (Stellaria media (STEME); dosage 320 g/ha) was 100%. For the same molecule, the “Pre-emergence efficacy against STEME” value (Stellaria media (STEME); dosage 1280 g/ha) was 100%, the “Pre-emergence efficacy against SETVI” value (Setaria viridis (SETVI) [2]; 80 g/ha) was 100% and the “Pre-emergence efficacy against SETVI” value (Setaria viridis (SETVI) [2]; 320 g/ha) was 100%. The “Pre-emergence efficacy against AMARE” value ([3]; 80 g/ha) was 80%, the “Pre-emergence efficacy against AMARE” value ([3]; 320 g/ha) was 100% and the “Post-emergence efficacy against VIOTR in %” value (Viola tricolor (VIOTR); application rate 80 g/ha) was 90%. For the same molecule, the “Post-emergence efficacy against VIOTR in %” value (Viola tricolor (VIOTR); application rate 320 g/ha) was 100%, the “Pre-emergence efficacy against ABUTH” value ([6]; 80 g/ha) was 100% and the “Pre-emergence efficacy against ABUTH” value ([6]; 320 g/ha) was 100%. The “Pre-emergence efficacy against ABUTH” value ([6]; 1280 g/ha) was 100%.
